Species: Mus musculus
Assay: Antiinflammatory activity against croton oil-induced ear swelling in BALB/c mouse after 6 hrs
Format: functional

COc1cc(C(=O)O[C@H]2[C@@H]3C=CO[C@@H](O[C@@H]4O[C@H](CO)[C@@H](O)[C@H](O)[C@H]4O)[C@@H]3[C@@]3(CO)O[C@@H]23)ccc1O [PICROSIDE II]
Activity: 46%
